Assay results as given in patent publication US6908930B2, “4-substituted 7-AZA-indolin-2-ones and their use as protein kinase inhibitors” (Sugen, Inc., priority 1999, dated 2005).

How the values were obtained:
[1] = target: T1, PDGFR (Homo sapiens, UniProt P09619); assay: Assay for modulation of PDGFR activity (ELISA); format: biochemical; details: read-out: bio PDGFR IC50
T1 construct: expressed in transfected cells; host or cells: NIH3T3
Method: Using the following reagents, supplies, and methods, the ability of the compounds of the invention to modulate the in vitro activity of the PDGFR can be readily determined in an enzyme-linked immunosorbent assay (ELISA).
Monoclonal anti-PDGFR antibody (28D4C10) is stored at −20° C. in 50 mL tubes prior to use.
Lysates from PDGFR-β expressing NIH3T3 cells are obtained and stored at −80° C. in 1 mL aliquots. PDGFR-β expression in eukaryotic cells is well known in the art. Lysates are prepared by the following method. Place carrier dishes in ice trays, and after cooling, remove the media and replace with ice cold PBS. Remove the PBS and repeat. […] Take up lysate with a pipettor and add to a 30 mL centrifuge tube on ice. Vortex the tubes for 30-60 seconds and then centrifuge for 10 minutes at 7000 rpm in a J-20 rotor which has been precooled to below 0° C. Recover the supernatants and combine them in a 250 mL tube and place on ice. Perform protein determination to measure the total quantity of protein per mL of solution. Aliquot the lysate into 1 mL fractions and store at −80° C.
Coat Corning 96 well ELISA plates with 0.5 μg per well 28D4C10 antibody in a volume of 100 μl PBS overnight, at 4° C. and remove unbound antibody, 28D4C10, from wells by inverting plate to remove liquid. Wash 1× with distilled H2O by filling wells. Pat the plate on a paper towel to remove excess liquid.
Add 150 μL of Blocking Buffer to each well. Incubate for 30 minutes at room temperature, with shaking and wash plate 3× with deionized water, then once with TBST. Pat plate on a paper towel to remove excess liquid and bubbles
Dilute lysate in PBS (10 mg lysate/100 μL PBS). Add 100 μL of diluted lysate to each well. Shake at room temperature for 60 min. Wash plate 3× with deionized water, then once with TBST. Pat plate on a paper towel to remove excess liquid and bubbles.
Add 80 μL Kinase Buffer to ELISA plate containing captured PDGFR.
Dilute drugs/extracts 1:10 (unless specified otherwise) in TBS+10% DMSO in 96-well polypropylene plates. (i.e., 10 μL compound+90 μL (TBS+10% DMSO)). Add 10 μL diluted drugs/extracts to ELISA plate. […] Incubate for 30 minutes while shaking at room temperature.
After 30 minutes stop reaction with addition of 10 μL of 200 mM EDTA pH 8.0 for 20 mM final in well. Wash 4× with deionized water, twice with TBST.
Incubate 30-45 minutes at room temperature, with shaking. Wash plate 3× with deionized water, then once with TBST. Pat plate on a paper towel to remove excess liquid and bubbles.
Incubate 30 minutes at room temperature with shaking. Wash plate 3× with deionized water, then once with TBST. Pat plate on a paper towel to remove excess liquid and bubbles.
Add 100 μL of ABTS/H2O2 solution to each well. Incubate 10 to 30 minutes while shaking. Remove any bubbles. If necessary stop reaction with the addition of 100 μL of 0.2M HCl per well
Read assay on Dynatech MR7000 ELISA reader.

[2] = target: T2, HER-2 (Homo sapiens, UniProt P04626); assay: Assay for modulation of HER-2 activity in whole cells (ELISA); format: cell-based; details: EGFR/HER-2chimera/#T3-C7 cell lines, EGF stimulated; read-out: HER-2 kinase IC50
T2 construct: expressed in mouse 3T3 (clone C7) cells; P00533 (Epidermal growth factor receptor)
T2 sequence (P04626 720-987 limits assumed): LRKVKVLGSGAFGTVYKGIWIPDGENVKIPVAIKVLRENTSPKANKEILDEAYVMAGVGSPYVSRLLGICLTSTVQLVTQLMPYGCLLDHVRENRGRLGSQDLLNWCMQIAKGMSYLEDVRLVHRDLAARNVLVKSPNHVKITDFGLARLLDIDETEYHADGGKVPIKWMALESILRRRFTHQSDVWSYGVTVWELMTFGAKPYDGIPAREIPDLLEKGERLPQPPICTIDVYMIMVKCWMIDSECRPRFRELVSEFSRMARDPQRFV
Method: Using the following reagents, supplies, and method, the ability of compounds of the invention to affect the activity of HER-2 in whole cells in an ELISA format can be assigned.
EGFR/HER-2chimera/#T3-C7 cell lines are used for this assay. Choose dishes having 80-90% confluence for the experiment. Collect cells by trypsinization and centrifuge at 1000 rpm at room temperature for 5 minutes.
Resuspend cells in starve medium and count with trypan blue. Only viability above 90% is acceptable. Seed cells in starve medium at a density of 2,500 cells per well, 90 μL per well, in a 96 well microtiter plate. Incubate seeded cells in 5% CO2 at 37° C. overnight. Start the assay two days after seeding.
Samples are diluted directly into a polypropylene plate containing starve-DMEM (non-sterile is okay). This dilution will be 1:10 or greater, depending on the samples being screened. The same amount of DMSO is put into the control wells. […] are then transferred to the cell plate at a 1:10 dilution (10 μL of sample and media into 90 μL of starve media). The final DMSO concentration will be 1% or lower.
Ten samples are put into wells 2-11 of row A of the NUNC 96 well polypropylene plate. These wells contain straight starve-DMEM. For a 1:10 dilution, one would put 10 μL of drug into 90 μL of media. The rest of the wells (including the controls) will have a DMSO/media mixture. The percentage of DMSO in this mixture is determined by the first dilution factor, in this case 1:10. The DMSO concentration is therefore 10%. An equal amount of drug and media from row A is put into row B, containing DMSO and media. The same amount is then taken out and put into row C. This is repeated for all rows. These are 1:2 dilutions. All wells are then transferred to the cell plate at a 1:10 dilution (10 μL of sample and media into 90 μL of starve-DMEM. The final DMSO concentration will be 1% or lower. […]
After a 2 hour incubation with the drug, add prepared EGF ligand to cells at 50 μL per well, for a final concentration of 50 nM. Positive control wells (8) receive the same amount of EGF. […] Incubate at 37° C. for 10 minutes.
Remove drug, EGF, and DMEM by dumping in sink. Wash cells once with PBS.
Transfer HNTG* to cells, 100 μL per well. Place on ice for 5 minutes. Meanwhile, remove blocking buffer from ELISA plate and wash as described above. With a pipette tip securely fitted to a micropipettor, scrape cells from plate and homogenize cell material by repeatedly aspirating and dispensing the HNTG* lysis buffer. Transfer lysate to a coated, blocked, washed ELISA plate. Alternatively, one may use a Costar transfer cartridge to transfer lysate to the ELISA plate. Incubate, shaking, at room temperature for one hour.
Remove lysate by dumping in sink, then wash as described earlier. Transfer freshly diluted anti-phosphotyrosine (anti-Ptyr) antibody (1:3000 in TEST) to ELISA plate, 100 μL per well. Incubate, shaking, at room temperature, for 30 minutes.
Remove anti-Ptyr antibody by dumping in sink, then wash as described earlier. Transfer freshly diluted BIOSOURCE antibody to ELISA plate, (1:8000 in TEST), 100 μL per well. Incubate, shaking, at room temperature for 30 minutes.
Remove BIOSOURCE antibody by dumping in sink, then wash as described earlier. Transfer freshly prepared ABTS/H2O2 solution to ELISA plate, […]. Incubate 5-10 minutes while shaking. Remove any bubbles and if necessary, stop reaction with the addition of 100 μL of 0.2 M HCl per well.
Read assay on Dynatech MR7000 ELISA reader. Test Filter: […]; Reference Filter: […]. A preferred template for the placement of controls in this experiment is provided below: […]

T1 sequence (P09619 33-1106, species assumed): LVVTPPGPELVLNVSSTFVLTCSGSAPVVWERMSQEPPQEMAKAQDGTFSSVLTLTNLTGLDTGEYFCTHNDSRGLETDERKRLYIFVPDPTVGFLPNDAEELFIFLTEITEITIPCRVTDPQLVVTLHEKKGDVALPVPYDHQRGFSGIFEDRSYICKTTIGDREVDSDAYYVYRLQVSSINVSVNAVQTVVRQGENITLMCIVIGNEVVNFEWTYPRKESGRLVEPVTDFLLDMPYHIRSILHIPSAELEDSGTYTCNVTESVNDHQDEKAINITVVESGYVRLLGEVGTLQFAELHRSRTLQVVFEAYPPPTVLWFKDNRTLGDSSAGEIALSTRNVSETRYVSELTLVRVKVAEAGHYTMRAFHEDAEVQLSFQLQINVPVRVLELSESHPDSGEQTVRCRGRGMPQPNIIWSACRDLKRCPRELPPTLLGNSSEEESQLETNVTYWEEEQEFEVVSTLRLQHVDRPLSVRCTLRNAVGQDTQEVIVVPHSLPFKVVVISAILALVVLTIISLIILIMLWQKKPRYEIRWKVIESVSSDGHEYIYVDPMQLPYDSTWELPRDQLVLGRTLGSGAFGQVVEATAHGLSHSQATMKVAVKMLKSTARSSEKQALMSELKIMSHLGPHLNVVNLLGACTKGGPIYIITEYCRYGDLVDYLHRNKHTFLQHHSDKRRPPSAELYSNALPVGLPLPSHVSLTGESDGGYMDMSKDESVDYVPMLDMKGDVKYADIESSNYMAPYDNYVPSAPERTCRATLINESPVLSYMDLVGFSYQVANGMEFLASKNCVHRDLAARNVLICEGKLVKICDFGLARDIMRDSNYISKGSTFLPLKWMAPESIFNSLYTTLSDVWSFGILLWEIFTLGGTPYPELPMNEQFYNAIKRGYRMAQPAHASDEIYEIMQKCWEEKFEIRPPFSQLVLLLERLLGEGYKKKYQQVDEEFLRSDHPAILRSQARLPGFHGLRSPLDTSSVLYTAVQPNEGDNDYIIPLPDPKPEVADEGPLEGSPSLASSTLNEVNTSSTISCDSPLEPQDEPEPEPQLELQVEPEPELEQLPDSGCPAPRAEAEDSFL

Structure (SMILES)	IC50 [1] [µM]	IC50 [2] [µM]
Cc1cc(C=C2C(=O)Nc3ncnc(Nc4ccc(F)c(Cl)c4)c32)[nH]c1C(=O)N1CCOCC1 [Formula 37]	> 20	1.07
CC(C)c1cc(CCC(=O)O)c(/C=C2\C(=O)Nc3ncnc(Nc4ccc(F)c(Cl)c4)c32)[nH]1 [Formula 27]	> 20	0.64
O=C1Nc2ncnc(N3CCOCC3)c2C1=Cc1ccc(C(=O)NCCN2CCOCC2)[nH]1 [Formula 13, 5-(4-MORPHOLIN-4-YL-6-OXO-6,7-DIHYDRO-PYRROLO[2,3-D]PYRIMIDIN-5-YLIDENEMETHYL)-1H-PYRROLE-2-CARBOXYLIC ACID (2-MORPHOLIN-4-YL-ETHYL)-AMIDE]	> 100	> 100
